How the values were obtained:
T. coloratus = details: in vivo; cited from earlier work
birds = details: in vivo; cited from earlier work
[1] = system: house flies (Drosophila melanogater); experiment: Three-section Petri dish choice test; type: in vivo
From the text: Colonies of house flies (Drosophila melanogater) were selected for subsequent placement in covered Petri dishes wherein each Petri dish was divided into three sections. One of the sections, a center section, was used as a control. An exemplary compound, methyl anthranilate (e.g., BIRDSHIELD™ at 0.006%) was applied to a piece of filter paper and placed in a first section while an […] (e.g., deionized water), was applied to another piece of filter paper and placed in second section. Flies were then released into the center control section and lids were placed on the Petri dishes.
More specifically, 100 captive flies were used and the sections were approximately equal in size, e.g., 33% of total space per section. Flies were released into the neutral zone of each Petri dish and monitored after 15 minutes and one hour.

Camponotus spp. = details: in vivo; cited from earlier work
ants = experiment: Treatment of ground to form a boundary; details: in vivo
Method: An exemplary method includes applying an exemplary compound or composition to the ground to thereby discourage insect traffic or deposition of insect semiochemicals. For example, where an exemplary compound is applied to the ground, the ground is not readily further marked by an insect semiochemical. A trial was performed where an exemplary compound (methyl anthranilate) was applied to the ground to form a boundary.

[2] = system: striped sunflower head moth larvae; experiment: Exemplary compound applied after exemplary composition, sunflowers; details: in vivo
From the text: An exemplary compound, methyl anthranilate, was combined with long chain fatty acids. The exemplary compound, as mixed with the fatty acids, was applied to three fields of maturing sunflowers. Each of the fields had previously been treated with an exemplary composition that included an exemplary compound, methyl anthranilate (approx. 4.5 oz per acre mixed with long chain fatty acids) and an insecticide, in this example, esfenvalerate (approx. 8 oz per acre using the insecticide product ASANA™). Ten flowers were randomly selected from the interior of each field and one-half of the seed heads were sprayed with DEET and one-half sprayed with the exemplary compound at a concentration of approximately 0.00312% methyl anthranilate, which was in a mixture that included long chain fatty acids. Spraying sprayed across the head of each flower. The number of striped sunflower head moth larvae, emerging from the seeds, was recorded.

[3] = system: mosquito (Aedes aegyptis); experiment: Mosquito repellency on human subject; type: in vivo
From the text: In these trials, DEET was provided in the commercially available product DEEP WOODS OFF™ repellent (S.C. Johnson & Son, Inc., Racine, Wis.), which has approximately 28.5% active ingredient; 1.5% other isomers and 70% inert ingredients.
In a first trial, a human subject was exposed to a mosquito (Aedes aegyptis) rich environment without application of the exemplary compound or DEET. Within less than one minute the subject was covered with the insects. In a second trial, the subject sprayed one unclothed arm with the exemplary compound at a rate of 0.00312% and the other unclothed arm with DEET at a concentration of 0.24%. The subject's head remained untreated. Upon returning to the test area, the subject's head was covered with the insects within one minute. […] In a third trial the subject, after removing the DEET from his/her body, reapplied the exemplary compound to unclothed arms, head and neck before returning to the test area. The subject returned to and remained in the test area for more than one hour without any of the insects landing on his/her arms, hands and head while numerous insects were observed on the clothed portions of his/her anatomy.

insects = experiment: Glue coated cardboard traps in a field; type: in vivo
Method: Trials were performed using an exemplary compound as part of a trapping device (e.g., a glue coated cardboard surface). Five traps were each treated with a 1 ml solution of 0.0156%, 0.03125%, 0.0625%, 0.125% and 0.25% methyl anthranilate, respectively. The treated traps were then placed at relatively random locations in a field. An untreated trap was placed adjacent to each treated trap and the number of insects adhered to each trap recorded as a function of time.

mites and spiders = experiment: Sunflower field application, other insects on treated sunflowers; type: in vivo; details: BIRDSHIELD at 0.006%, approx. two weeks after ASANA
From the text: (§1) An insecticide, ASANA™, was applied to sunflowers. Approximately two weeks later, an exemplary compound, methyl anthranilate (e.g., BIRDSHIELD™ at 0.006%) was applied to the same sunflowers. […] This behavior caused the larvae to fall off of the flower portions of the sunflowers. In addition, the exemplary compound affected behavior of other insects on the treated sunflowers.

[4] = system: banded sunflower moth (Cochylis hospes), sunflower seed head larvae; experiment: Sunflower field application, seed head larvae; type: in vivo; details: BIRDSHIELD at 0.006%, approx. two weeks after ASANA; within a minute of application
From the text: An insecticide such as ASANA™ (active ingredient esfenvalerate) is suitable for use in controlling banded sunflower moth (Cochylis hospes). An exemplary composition that included an exemplary compound, methyl anthranilate (e.g., BIRDSHIELD™), was applied to sunflowers.
as §1

Ceranisus menes = details: in vivo; cited from earlier work
[5] = system: corn ear worm (Heliothus zea); experiment: Crop field trials with lambda cyalothrin insecticide, corn ear worm larvae; type: in vivo
From the text: An exemplary compound, methyl anthranilate, was combined with fatty acid and applied to crop fields (again, this formulation will also repel at least some birds), contemporaneously, an insecticide having a pyrethrin, lambda cyalothrin, as an active ingredient was applied to crop fields (e.g., WARRIOR™).
In another trial, an insecticide that included a pyrethrin, lambda cyalothrin, was applied to crop fields (e.g., WARRIOR™). […] Later, an exemplary compound, methyl anthranilate, combined with a fatty acid, was applied to the same crop field. […] An exemplary composition included an exemplary compound, methyl anthranilate, fatty acid and an insecticide that included a pyrethrin, lambda cyalothrin, as an active ingredient (e.g., WARRIOR™). The exemplary composition was applied to crop fields.

SMILES: COC(=O)c1ccccc1N [methyl anthranilate]
- attraction of T. coloratus (T. coloratus): are attracted
- repellency to birds (birds): exhibit repellency to birds
- fly response to treated section ([1]; 0.006% on filter paper, within one hour): avoided the section treated with the exemplary compound
- fly response to treated areas ([1]; approximately 0.00025%): relatively neutral
- fly response to treated areas ([1]; approximately 0.0025%): somewhat neutral
- fly response to treated areas ([1]; approximately 0.025%): avoided the treated areas
- fly response to treated areas ([1]; approximately 0.25%, 100 flies, monitored after 15 minutes and one hour): avoided the treated areas
- effect on Camponotus spp. (Camponotus spp.): trigger flight of sexuals from nest
- crossing of treated ground boundary (ants): ants did not cross this boundary
- effectiveness when applied after an exemplary composition [2]: high level of effectiveness
- effectiveness as mosquito repellent compared with DEET ([3]; at lower concentrations): as effective as DEET
- mosquitoes on treated unclothed arm ([3]; second trial, methyl anthranilate 0.00312%, DEET 0.24%, untreated head covered within one minute): No mosquitoes were found
- time in test area without insects landing on treated arms, hands and head ([3]; third trial): more than one
- number of insects adhered to trap (insects; 0.0156 percent, 1 min): 3
- number of insects adhered to trap (insects; 0.0156 percent, 5 min): 22
- number of insects adhered to trap (insects; 0.0156 percent, 10 min): 75
- number of insects adhered to trap (insects; 0.0156 percent, 20 min): >75
- number of insects adhered to trap (insects; 0.0313 percent, 1 min): 5
- number of insects adhered to trap (insects; 0.0313 percent, 5 min): 15
- number of insects adhered to trap (insects; 0.0313 percent, 10 min): 68
- number of insects adhered to trap (insects; 0.0313 percent, 20 min): >68
- number of insects adhered to trap (insects; 0.0625 percent, 1 min): 7
- number of insects adhered to trap (insects; 0.0625 percent, 5 min): 35
- number of insects adhered to trap (insects; 0.0625 percent, 10 min): 128
- number of insects adhered to trap (insects; 0.0625 percent, 20 min): >128
- number of insects adhered to trap (insects; 0.1250 percent, 1 min): 15
- number of insects adhered to trap (insects; 0.1250 percent, 5 min): 62
- number of insects adhered to trap (insects; 0.1250 percent, 10 min): 256
- number of insects adhered to trap (insects; 0.1250 percent, 20 min): >256
- number of insects adhered to trap (insects; 0.2500 percent, 1 min): 43
- number of insects adhered to trap (insects; 0.2500 percent, 5 min): 84
- number of insects adhered to trap (insects; 0.2500 percent, 10 min): 346
- number of insects adhered to trap (insects; 0.2500 percent, 20 min): >346
- behavior of mites and spiders on treated sunflowers (mites and spiders): observed to appear from spaces between maturing seeds and to subsequently fall off the flower portion of the sunflowers
- appearance of sunflower seed head larvae [4]: began to appear on the surface of the sunflowers
- attraction of Ceranisus menes (Ceranisus menes): are attracted
- corn ear worm larvae on the ground ([5]; combined with a fatty acid, applied later to field already treated with lambda cyalothrin, within a day): littered the ground
- corn ear worm larvae on the ground ([5]; combined with fatty acid, applied contemporaneously with lambda cyalothrin insecticide (WARRIOR), within a day of treatment): littered the ground

From patent publication US8092790B2, “Methods of making formulations to affect insect behavior and/or bird behavior” (Bug Buster, Ltd., priority 2003, dated 2012)
